Experimental data from paper PMC6249242, “Metabolic engineering of Escherichia coli for de novo biosynthesis of vitamin B12” (Nature Communications, 2018).

Columns and labels:
BluE = target: T1, BluE (Rhodobacter capsulatus, UniProt D5AV17); assay: crude enzyme kinase assay, LC-MS of L-threonine phosphate; also in vivo HPLC; assay type: biochemical
T1 construct: gene RCAP_rcc02055

CobB = CobB (Rhodobacter capsulatus, UniProt O68108); assay: in vitro amidation, LC-MS of HBAD; assay type: biochemical
CobB, sequence (O68108 whole entry): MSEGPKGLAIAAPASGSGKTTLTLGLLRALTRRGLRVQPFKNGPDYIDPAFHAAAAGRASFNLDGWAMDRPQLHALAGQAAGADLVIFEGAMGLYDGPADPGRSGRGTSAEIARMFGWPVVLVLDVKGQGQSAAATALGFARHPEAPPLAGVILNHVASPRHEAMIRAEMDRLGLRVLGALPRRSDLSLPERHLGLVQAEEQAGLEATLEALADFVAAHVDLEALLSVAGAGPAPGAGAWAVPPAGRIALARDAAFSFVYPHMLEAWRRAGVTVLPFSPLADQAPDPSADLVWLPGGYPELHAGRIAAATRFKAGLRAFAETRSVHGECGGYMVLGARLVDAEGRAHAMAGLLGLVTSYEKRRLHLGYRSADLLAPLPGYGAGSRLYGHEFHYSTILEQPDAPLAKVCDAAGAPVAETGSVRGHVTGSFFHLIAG

purified protein = substrate: C[C@@H](OP(=O)(O)O)[C@H](N)C(=O)O; assay: purified protein; settings: pH 6.8 PIPES, 37 °C, 500 µM pyridoxal phosphate (standard assay), substrate taken from the assay description

T1 sequence (D5AV17 entry or part of it): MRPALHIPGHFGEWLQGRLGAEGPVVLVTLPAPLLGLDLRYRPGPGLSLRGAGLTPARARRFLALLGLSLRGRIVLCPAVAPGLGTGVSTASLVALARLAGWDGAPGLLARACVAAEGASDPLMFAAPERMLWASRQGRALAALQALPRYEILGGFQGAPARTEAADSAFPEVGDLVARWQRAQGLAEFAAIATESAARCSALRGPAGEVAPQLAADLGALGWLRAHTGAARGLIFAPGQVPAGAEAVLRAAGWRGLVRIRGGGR

Molecule: C[C@@H](O)[C@H](N)C(=O)O [L-threonine]
- crude enzyme kinase assay, LC-MS of L-threonine phosphate; also in vivo HPLC (BluE): crude BluE activity was confirmed via an in vitro assay

Molecule: C/C1=C2N=C(/C=C3\N/C(=C(/C)C4=NC(C)(C5N=C1C(C)(CCC(=O)O)C5CC(=O)O)C(C)(CC(=O)O)C4CCC(=O)O)C(C)(CC(=O)O)C3CCC(=O)O)C(C)(C)C/2CCC(=O)O (stereo not drawn) [hydrogenobyrinic acid]
- in vitro amidation, LC-MS of HBAD (CobB): it was completely converted to HBAD by CobB enzyme from R. capsulatus in vitro

B1: RcCobC (Rhodobacter capsulatus SB 1003) (protein)
chain: MRDHGGNSDAARAQYGGEDWIDLSTGINRQPWPVPDLPAHVWTDLPTATAKAALLDAAAAAFGTPAPGVALAGAQQAIQLIPRLWAPGRARVLGPTYNEHAAALRAAGWQVEEVSTLGALAGADLAVVVNPNNPDGQRHPAAALRALSLQVGRLVVDESFADASPAASVTAKASRRMLVLRSFGKFYGLAGLRLGFVFADAATVAALSEMAGPWPVSGPALEIGRRALLDRNWAMATALRLGAETMRMDALAARAGWRLVGGTALFRTYATPDAAAAQDHLARARIWSRVFPYAADWLRLGLPGNESEWMRLEKALTNEL
- Km (purified protein): 1890 µM
